For one assay, the target named is human GLP-1R (Homo sapiens, UniProt P43220). Description: GLP-1R Cell Assay 1: cAMP Hunter CHO-K1 GLP1R Gs cell line, HitHunter cAMP assay. The settings on record: Table 2; cAMP Hunter CHO-K1 GLP1R Gs cells; percent activity normalized to Exendin-4. In kind it is cell-based. The method in brief:
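Luminescent enzyme-fragment-complementation immunoassay quantified cellular cAMP after 30-60 min compound exposure at 37 °C in HBSS/10 mM HEPES. Data from duplicate runs were normalised to Exendin-4 and fitted nonlinearly for EC50.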
Sequence of human GLP-1R (P43220 24-463): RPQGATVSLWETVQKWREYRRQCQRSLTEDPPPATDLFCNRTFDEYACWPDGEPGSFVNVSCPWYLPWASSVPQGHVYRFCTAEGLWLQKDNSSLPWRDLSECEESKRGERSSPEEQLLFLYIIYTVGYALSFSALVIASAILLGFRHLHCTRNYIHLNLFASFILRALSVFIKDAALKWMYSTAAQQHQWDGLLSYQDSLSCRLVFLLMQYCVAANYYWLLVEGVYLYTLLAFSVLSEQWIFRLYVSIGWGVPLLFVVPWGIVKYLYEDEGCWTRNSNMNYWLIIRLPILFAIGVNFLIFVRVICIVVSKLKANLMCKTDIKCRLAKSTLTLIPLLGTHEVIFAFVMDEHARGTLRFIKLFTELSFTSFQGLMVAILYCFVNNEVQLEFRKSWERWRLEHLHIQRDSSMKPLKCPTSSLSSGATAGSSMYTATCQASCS
Molecule `NC(=O)c1ccc2c(c1)CCN(c1cccc(N3CCN(Cc4nc5ccc(C(=O)O)cc5n4C[C@@H]4CCO4)CC3)n1)C2` [Compound 59, (S)-2-((4-(6-(6-carbamoyl-3,4-dihydroisoquinolin-2(1H)-yl)pyridin-2-yl)piperazin-1-yl)methyl)-1-(oxetan-2-ylmethyl)-1H-benzo[d]imidazole-6-carboxylic acid] showed an EC50 of 228 nM.

The molecule `N#Cc1ccc(Cn2cnc3ccc(N4CCN(Cc5nc6ccc(C(=O)O)cc6n5C[C@@H]5CCO5)CC4)nc32)c(F)c1` [Compound 100, (S)-2-((4-(3-(4-cyano-2-fluorobenzyl)-3H-imidazo[4,5-b]pyridin-5-yl)piperazin-1-yl)methyl)-1-(oxetan-2-ylmethyl)-1H-benzo[d]imidazole-6-carboxylic acid] showed an EC50 of 246 nM.

On to `O=C(O)c1ccc2nc(CN3CCC(n4ccc(OCCc5ccccc5)n4)CC3)n(C[C@@H]3CCO3)c2c1` [Compound 99], for which the EC50 turned out to be 2070 nM.

In turn, `Cn1cc(COc2cccc(N3CCN(Cc4nc5ccc(C(=O)O)cc5n4C[C@@H]4CCO4)CC3)n2)cn1` [Compound 86, (S)-2-((4-(6-((1-methyl-1H-pyrazol-4-yl)methoxy)pyridin-2-yl)piperazin-1-yl)methyl)-1-(oxetan-2-ylmethyl)-1H-benzo[d]imidazole-6-carboxylic acid] displayed a concentration for a half-maximal effect (EC50) of 75.3 nM.

`O=C(O)c1ccc2nc(CN3CCN(c4cccc(NCc5ccccc5)n4)CC3)n(C[C@@H]3CCO3)c2c1` [Compound 55, (S)-2-((4-(6-(benzylamino)pyridin-2-yl)piperazin-1-yl)methyl)-1-(oxetan-2-ylmethyl)-1H-benzo[d]imidazole-6-carboxylic acid] displayed an EC50 of 42.3 nM.

`CCn1cncc1Cn1c(CN2CCC(c3cccc(OCc4nc5ccccc5s4)n3)CC2)nc2ccc(C(=O)O)cc21` [Compound 125, 2-((4-(6-(benzo[d]thiazol-2-ylmethoxy)pyridin-2-yl)piperidin-1-yl)methyl)-1-((1-ethyl-1H-imidazol-5-yl)methyl)-1H-benzo[d]imidazole-6-carboxylic acid] returned an EC50 of 0.0329 nM.

`O=C(O)c1ccc2nc(CN3CCN(c4cccc(OCc5nc6cccnc6s5)n4)CC3)n(C[C@@H]3CCO3)c2c1` [Compound 122, (S)-1-(oxetan-2-ylmethyl)-2-((4-(6-(thiazolo[5,4-b]pyridin-2-ylmethoxy)pyridin-2-yl)piperazin-1-yl)methyl)-1H-benzo[d]imidazole-6-carboxylic acid] displayed an EC50 of 2.24 nM.

As for `O=C(O)c1ccc2nc(CN3CCN(c4cccc(OCC5CC6(COC6)C5)n4)CC3)n(C[C@@H]3CCO3)c2c1` [Compound 43, (S)-2-((4-(6-((2-oxaspiro[3.3]heptan-6-yl)methoxy)pyridin-2-yl)piperazin-1-yl)methyl)-1-(oxetan-2-ylmethyl)-1H-benzo[d]imidazole-6-carboxylic acid], the EC50 was above 500 nM.

In turn, `O=C(O)c1ccc2nc(CN3CCC(c4cccc(C5CCc6ccccc6C5)n4)CC3)n(C[C@@H]3CCO3)c2c1` (stereo partly drawn) [Compound 12, 1-((S)-oxetan-2-ylmethyl)-2-((4-(6-(1,2,3,4-tetrahydronaphthalen-2-yl)pyridin-2-yl)piperidin-1-yl)methyl)-1H-benzo[d]imidazole-6-carboxylic acid] yielded an EC50 of 124 nM.

The molecule `CS(=O)(=O)N1CCC(COc2cccc(N3CCN(Cc4nc5ccc(C(=O)O)cc5n4C[C@@H]4CCO4)CC3)n2)CC1` [Compound 52, (S)-2-((4-(6-((1-(methylsulfonyl)piperidin-4-yl)methoxy)pyridin-2-yl)piperazin-1-yl)methyl)-1-(oxetan-2-ylmethyl)-1H-benzo[d]imidazole-6-carboxylic acid] yielded an EC50 above 500 nM.

For the molecule `O=C(O)c1ccc2nc(CN3CCN(c4cccc(OCc5nc6cc(F)ccc6s5)n4)CC3)n(C[C@@H]3CCO3)c2c1` [Compound 119, (S)-2-((4-(6-((5-fluorobenzo[d]thiazol-2-yl)methoxy)pyridin-2-yl)piperazin-1-yl)methyl)-1-(oxetan-2-ylmethyl)-1H-benzo[d]imidazole-6-carboxylic acid], the EC50 is 0.552 nM.

For `O=C(O)c1ccc2nc(CN3CC[C@@]4(c5cccc(OCc6nc7ccccc7s6)n5)C[C@H]4C3)n(C[C@@H]3CCO3)c2c1` (single isomer, unassigned) [Compound 104-P1], it took 4.91 nM to reach a half-maximal effect (EC50).

`N#Cc1ccc(COc2cccc(C34CCN(Cc5nc6ccc(C(=O)O)cc6n5C[C@@H]5CCO5)CC3C4)n2)c(F)c1` (stereo partly drawn) [Compound 9, 2-((6-(6-((4-cyano-2-fluorobenzyl)oxy)pyridin-2-yl)-3-azabicyclo[4.1.0]heptan-3-yl)methyl)-1-((S)-oxetan-2-ylmethyl)-1H-benzo[d]imidazole-6-carboxylic acid] returned an EC50 of 0.476 nM.

Take `CCc1cn(C2CCN(Cc3nc4ccc(C(=O)O)cc4n3C[C@@H]3CCO3)CC2)nc1OCc1ccc(C#N)cc1F` [Compound 124, (S)-2-((4-(3-((4-cyano-2-fluorobenzyl)oxy)-4-ethyl-1H-pyrazol-1-yl)piperidin-1-yl)methyl)-1-(oxetan-2-ylmethyl)-1H-benzo[d]imidazole-6-carboxylic acid]: the EC50 came out at 22.9 nM.

`O=C(O)c1ccc2nc3n(c2c1)CCOC[C@H]3N1CCC(c2cccc(OCc3ccccc3)n2)CC1` [Compound 93, (S)-5-(4-(6-(benzyloxy)pyridin-2-yl)piperidin-1-yl)-1,2,4,5-tetrahydrobenzo[4,5]imidazo [1,2-d][1,4]oxazepine-9-carboxylic acid]: the EC50 is above 500 nM.

With `C[C@@]1(c2cccc(OCc3ccc(C#N)cc3F)n2)CCN(Cc2nc3ccc(C(=O)O)cc3n2C[C@@H]2CCO2)C1` (single isomer, unassigned) [Compound 20-P1], the 50% effective concentration (EC50) is above 500 nM.

For `N#Cc1ccc(COc2cccc(N3CCN(Cc4nc5ccc(C(=O)O)cc5n4C[C@@H]4CCS4(=O)=O)CC3)n2)c(F)c1` (single isomer, unassigned) [Compound 140-P1], the EC50 is 0.571 nM.

Regarding `N#Cc1ccc2c(c1)CCCN(c1cccc(N3CCN(Cc4nc5ccc(C(=O)O)cc5n4C[C@@H]4CCO4)CC3)n1)C2` [Compound 74, (S)-2-((4-(6-(7-cyano-1,3,4,5-tetrahydro-2H-benzo[c]azepin-2-yl)pyridin-2-yl)piperazin-1-yl)methyl)-1-(oxetan-2-ylmethyl)-1H-benzo[d]imidazole-6-carboxylic acid], the EC50 came out at 141 nM.

In turn, `N#Cc1cccc2c1CCN(c1cccc(N3CCN(Cc4nc5ccc(C(=O)O)cc5n4C[C@@H]4CCO4)CC3)n1)C2` [Compound 120, (S)-2-((4-(6-(5-cyano-3,4-dihydroisoquinolin-2(1H)-yl)pyridin-2-yl)piperazin-1-yl)methyl)-1-(oxetan-2-ylmethyl)-1H-benzo[d]imidazole-6-carboxylic acid] had a 50% effective concentration (EC50) of 43.5 nM.

`C[C@H]1COC[C@H](N2CCC(c3cccc(OCc4ccc(C#N)cc4F)n3)CC2)c2nc3ccc(C(=O)O)cc3n21` (single isomer, unassigned) [Compound 8-P1] came in with an EC50 above 500 nM.

`O=C(O)c1ccc2nc(CN3CC[C@]4(c5cccc(OCc6ccc(Cl)cc6Cl)n5)C[C@@H]4C3)n(C[C@@H]3CCO3)c2c1` (single isomer, unassigned) [Compound 126-P2] came in with an EC50 of 0.373 nM.

On to `O=C(O)c1ccc2nc(CN3CCC(O)(c4cccc(OCc5ccccc5)n4)CC3)n(C[C@@H]3CCO3)c2c1` [Compound 18, (S)-2-((4-(6-(benzyloxy)pyridin-2-yl)-4-hydroxypiperidin-1-yl)methyl)-1-(oxetan-2-ylmethyl)-1H-benzo[d]imidazole-6-carboxylic acid], for which the EC50 was above 500 nM.

Staying with this assay, now noted: Table 3; cAMP Hunter CHO-K1 GLP1R Gs cells; percent activity normalized to Exendin-4.
Consider `O=C(O)c1ccc2nc(CN3CCN(c4ccc5cc(-c6ccccc6)oc5n4)CC3)n(C[C@@H]3CCO3)c2c1` [Compound 160, (S)-1-(oxetan-2-ylmethyl)-2-((4-(2-phenylfuro[2,3-b]pyridin-6-yl)piperazin-1-yl)methyl)-1H-benzo[d]imidazole-6-carboxylic acid], for which the EC50 is above 500 nM.

As to `O=C(O)c1ccc2nc(CN3CCC(c4cccc5c4CC(=O)N(c4ccccc4)C5)CC3)n(C[C@@H]3CCO3)c2c1` [Compound 152, (S)-1-(oxetan-2-ylmethyl)-2-((4-(3-oxo-2-phenyl-1,2,3,4-tetrahydroisoquinolin-5-yl)piperidin-1-yl)methyl)-1H-benzo[d]imidazole-6-carboxylic acid], the concentration for a half-maximal effect (EC50) is above 500 nM.

For the molecule `N#Cc1ccc(-n2ccc3c(C4CCN(Cc5nc6ccc(C(=O)O)cc6n5C[C@@H]5CCO5)CC4)cccc3c2=O)c(F)c1` [Compound 147, (S)-2-((4-(2-(4-cyano-2-fluorophenyl)-1-oxo-1,2-dihydroisoquinolin-5-yl)piperidin-1-yl)methyl)-1-(oxetan-2-ylmethyl)-1H-benzo[d]imidazole-6-carboxylic acid], the EC50 is above 500 nM.

`CCn1cncc1Cn1c(CN2CCC(c3cccc(OCc4nc5c(F)cc(C#N)cc5s4)n3)CC2)nc2ccc(C(=O)O)cc21` [Compound 164, 2-((4-(6-((6-cyano-4-fluorobenzo[d]thiazol-2-yl)methoxy)pyridin-2-yl)piperidin-1-yl)methyl)-1-((1-ethyl-1H-imidazol-5-yl)methyl)-1H-benzo[d]imidazole-6-carboxylic acid] returned an EC50 of 0.0254 nM.

In turn, `O=C(O)c1ccc2nc(CN3CCN(c4ccc5c(n4)OC(c4ccccc4)CC5)CC3)n(C[C@@H]3CCO3)c2c1` (stereo partly drawn) [Compound 162, 1-(((S)-oxetan-2-yl)methyl)-2-((4-(2-phenyl-3,4-dihydro-2H-pyrano[2,3-b]pyridin-7-yl)piperazin-1-yl)methyl)-1H-benzo[d]imidazole-6-carboxylic acid] registered an EC50 above 500 nM.

Regarding `CCn1cncc1Cn1c(CN2CC[C@]3(c4cccc(N5CCc6cc(C#N)cc(F)c6C5)n4)C[C@@H]3C2)nc2ccc(C(=O)O)cc21` [Compound 184-P2, 2-(((1S,6R)-6-(6-(6-cyano-8-fluoro-3,4-dihydroisoquinolin-2(1H)-yl)pyridin-2-yl)-3-azabicyclo[3.1.0]heptan-3-yl)methyl)-1-((1-ethyl-1H-imidazol-5-yl)methyl)-1H-benzo[d]imidazole-6-carboxylic acid], a half-maximal effect (EC50) was put at 0.414 nM.

For the origin of these results see US20220089578A1, “COMPOUNDS AS GLP-1R AGONISTS” (Terns Pharmaceuticals, Inc., priority 2020, published 2022).
